Values after ≈ are worked out from the molar mass of the structure shown. Read-outs that look alike come from different tables or passages of the source.
Assays:
[1] = test system: HDFf (human dermal fibroblasts of fetal origin); experiment: Manual human EST cytotoxicity assay, CellTiter-Glo, 5 d
Procedure: (§1) The cytotoxicity assessment with a reduced assay time of 5 days combined with either NADH- or ATP-based detection was also carried out with human induced pluripotent stem cells (hiPSCs). […] Furthermore, differences in the cytotoxicity effects between the hiPSCs and HDFfs were more pronounced than in the mouse cells. Similar to the cytotoxicity-based assay the overall variance in the data is reduced when viability data was obtained by an ATP-based read-out.
(§2) 96-well cell culture plates were coated with gelatin (0.1%) before plating mESC-D3. All peripheral wells of the assay plate were filled with 200 μl growth media. In order to assess compound toxicity on mESC-D3 and NIH/3T3 cells, cell suspensions of NIH/3T3, and mESC-D3 were prepared in growth media (1 × 10^4 cells/ml) and were transferred to all remaining wells (50 μl/well). A 7-point dilution series in growth media was prepared for each test compound and was transferred to the assay plate 2 h after cell seeding (150 μl/well). Afterward, the cells were incubated in a humidified atmosphere at 37 °C and 5% CO2. Three and 5 days after seeding the cell supernatant was replaced by freshly prepared compound solution (200 μl/well). Seven days after seeding the assay plate was taken out of the incubator and located at room temperature for 10 min, before cell supernatant was aspirated (80 μl/well) and CellTiter-Glo® reagent was dispensed (50 μl/well). The assay plate was placed on a shaker for 1 min and after another 10 min incubation at room temperature in the dark the luminescence signal was detected on a plate reader.
(§3) Figure S1: Step-wise evolution of the cytotoxicity assay towards the use of human cell lines. Related to Figure 2. Cytotoxicity assays were carried out with two compound sets on hiPSC line ZIPi013-E and HDFf, from which they were derived. […] A) 5 day MTT assay and manual handling. B) As in A), but using CellTiter-Glo® viability assay. All points in the graph represent the mean of 6 individual data points, including the standard error.

hiPSC line ZIPi013-E [2] = experiment: as above
Procedure: as §1, §2, §3

[3] = test system: HDFf (human dermal fibroblasts of fetal origin); experiment: Manual human EST cytotoxicity assay, MTT, 5 d
Procedure: as §1
(§4) The MTT cell viability assay was performed as described (Seiler and Spielmann [2011]) with modifications. In brief, 96-well cell culture plates were coated with gelatin (0.1%) before plating mESC-D3. All peripheral wells of the assay plate were filled with 200 μl growth media (“blank”). Afterward, NIH/3T3 and mESC-D3 were plated in growth media (1 × 10^4 cells/ml, 50 μl/well). […] Vehicle (PBS) and positive control (5-fluorouracil) wells were also included on all assay plates. Three and 5 days after seeding the cell supernatant was replaced by freshly prepared compound solution (200 μl/well). Seven days after seeding the cell viability was detected. Therefore, the cell supernatant was aspirated from all wells, MTT solution (5 mg/ml) was added (20 μl/well) and the assay plate was incubated for 2 h at 37 °C and 5% CO2 in a humidified atmosphere. Afterward, all liquid was removed from the wells and MTT desorb solution (0.7% SDS in 2-propanol (Carl Roth, Cat. No. 9866.5), pre-warmed to 37 °C) was dispensed (130 μl/well). The assay plate was placed on a shaker for 15 min. Remaining precipitates were suspended by pipetting up and down with a multichannel pipette before measuring the absorption at 570 nm on a microtiter plate reader using 630 nm as a reference wavelength.
as §3

hiPSC line ZIPi013-E [4] = experiment: Manual human EST cytotoxicity assay, MTT, 5 d
Procedure: as §1, §4, §3

NIH/3T3 [5] = experiment: Automated CellTiter-Glo luminescent cell viability (cytotoxicity) assay, 5 d
Procedure: (§5) The CellTiter-Glo® luminescent cell viability assay (Promega, Cat. No. G7573) was automated in 96-well format on the lab automation platform Fluent® (Tecan, Männedorf, Switzerland). The procedure allowed the testing of six compounds in mESC-D3 and NIH/3T3 cells in parallel. On the first day, PBS was dispensed into the peripheral wells of the assay plates (200 μl/well) using the Multiple Channel Arm (MCA). Mouse ES-D3 and NIH/3T3 cells were plated (50 μl/well, 1 × 10^4 cells/ml)) using the Flexible Channel Arm (FCA) and transported into the Cytomat™ 10 (Thermo Fisher Scientific) for incubation using the Robotic Gripper Arm (RGA). A 7-point dilution series of the test compounds and control solutions were prepared in PBS or DMSO (Carl Roth, Cat. No. HN47.1) under the laminar flow, transferred to a 96-well 0.5-ml Masterblock plate (Greiner bio-one, Cat. No. 786261) and placed on the worktable. On the Fluent the compounds were transferred to a 96-well 2-ml Masterblock plate (Greiner bio-one, Cat. No. 780271) and further diluted in growth media using the FCA. Two hours after cell plating compounds and controls were transferred to the assay plate with the FCA (150 μl/well) and transported back in the Cytomat 10. On day three of the assay, the media was exchanged using the MCA: old media was aspirated and dispensed into a 96-deep-well plate (“waste”), freshly prepared compound, and control solution was dispensed into the assay plate. After two more days of incubation, the cell viability was determined using the CellTiter-Glo assay. The assay plates were transported from the Cytomat 10 to the Carousel (Tecan) to adapt to room temperature. After 25 min the cell supernatant was removed partially (80 μl/well) and CellTiter-Glo reagent was dispensed (50 μl/well). The assay plate was placed on a shaker for 1 min and afterward incubated 25 min in the Carousel before the Luminescence signal was detected on the Infinite M1000 Pro plate reader (Tecan).
(§6) Toxicity data from the MTT and CellTiter-Glo Assay was normalized against the vehicle control (100% viability) and plotted against the logarithmic compound concentration.

mESC-D3 [6] = experiment: as above
Procedure: as §5, §6

NIH/3T3 [7] = experiment: Manual MTT cell viability assay, 7 d; format: cell-based, mouse
Procedure: as §4, §6

mESC-D3 [8] = experiment: Manual MTT cell viability assay, 7 d; format: cell-based, mouse
Procedure: as §4, §6

[9] = Automated CellTiter-Glo luminescent cell viability (cytotoxicity) assay, 5 d; conditions: mouse
Procedure: as §5, §6

[10] = Manual MTT cell viability assay, 7 d; format: cell-based, mouse; conditions: mouse, manual, in brackets the two individual experiments
Procedure: as §4, §6

NC(=O)NO [Hydroxyurea, hydroxyurea]
Cytotoxicity assay CTG, 5 d IC50 HDFf [1]: 30.15 µg/mL | Cytotoxicity assay CTG, 5 d IC50 ZIPi013-E (hiPSC line ZIPi013-E [2]): 0.8652 µg/mL | Cytotoxicity assay MTT, 5 d IC50 HDFf [3]: 4.005 µg/mL | Cytotoxicity assay MTT, 5 d IC50 ZIPi013-E (hiPSC line ZIPi013-E [4]): 0.3326 µg/mL | Cytotoxicity assay CTG, 5 d IC50 NIH/3T3 (NIH/3T3 [5]): 4.01 (3.97; 4.06) μg/ml | Cytotoxicity assay CTG, 5 d IC50 mESC-D3 (mESC-D3 [6]): 2.28 (1.69; 2.87) μg/ml | Cytotoxicity assay MTT, 7 d IC50 NIH/3T3 (NIH/3T3 [7]): 2.17 (1.81; 2.53) µg/ml | Cytotoxicity assay MTT, 7 d IC50 mESC-D3 (mESC-D3 [8]): 2.11 (2.08; 2.15) µg/ml

O=C1NS(=O)(=O)c2ccccc21 [Saccharin, saccharin]
IC50 at 5 d ([9]; NIH/3T3 cells): > 1000 µg/mL | IC50 at 5 d ([9]; mESC-D3 cells (mouse embryonic stem cells)): 393 µg/mL (≈ 2.15 mM) | IC50 at 7 d ([10]; NIH/3T3 cells, read-out: Cytotoxicity assay MTT, 7 d IC50 NIH/3T3): > 1000 µg/mL | IC50 at 7 d ([10]; mESC-D3 cells, read-out: Cytotoxicity assay MTT, 7 d IC50 mESC-D3): > 1000 µg/mL

From PMC8012336, “An automated and high-throughput-screening compatible pluripotent stem cell-based test platform for developmental and reproductive toxicity assessment of small molecule compounds” (Cell Biology and Toxicology, 2020)
